Measurements: BindingDB's records for patent US20250214965 (Hangzhou Innogate Pharma, 2025)

Each molecule was assayed against T1, Kinesin-like protein KIF18A (Homo sapiens, UniProt Q8NI77) (assay: Inhibition of KIF18A Enzyme Activity).
T1 sequence (Q8NI77 whole entry): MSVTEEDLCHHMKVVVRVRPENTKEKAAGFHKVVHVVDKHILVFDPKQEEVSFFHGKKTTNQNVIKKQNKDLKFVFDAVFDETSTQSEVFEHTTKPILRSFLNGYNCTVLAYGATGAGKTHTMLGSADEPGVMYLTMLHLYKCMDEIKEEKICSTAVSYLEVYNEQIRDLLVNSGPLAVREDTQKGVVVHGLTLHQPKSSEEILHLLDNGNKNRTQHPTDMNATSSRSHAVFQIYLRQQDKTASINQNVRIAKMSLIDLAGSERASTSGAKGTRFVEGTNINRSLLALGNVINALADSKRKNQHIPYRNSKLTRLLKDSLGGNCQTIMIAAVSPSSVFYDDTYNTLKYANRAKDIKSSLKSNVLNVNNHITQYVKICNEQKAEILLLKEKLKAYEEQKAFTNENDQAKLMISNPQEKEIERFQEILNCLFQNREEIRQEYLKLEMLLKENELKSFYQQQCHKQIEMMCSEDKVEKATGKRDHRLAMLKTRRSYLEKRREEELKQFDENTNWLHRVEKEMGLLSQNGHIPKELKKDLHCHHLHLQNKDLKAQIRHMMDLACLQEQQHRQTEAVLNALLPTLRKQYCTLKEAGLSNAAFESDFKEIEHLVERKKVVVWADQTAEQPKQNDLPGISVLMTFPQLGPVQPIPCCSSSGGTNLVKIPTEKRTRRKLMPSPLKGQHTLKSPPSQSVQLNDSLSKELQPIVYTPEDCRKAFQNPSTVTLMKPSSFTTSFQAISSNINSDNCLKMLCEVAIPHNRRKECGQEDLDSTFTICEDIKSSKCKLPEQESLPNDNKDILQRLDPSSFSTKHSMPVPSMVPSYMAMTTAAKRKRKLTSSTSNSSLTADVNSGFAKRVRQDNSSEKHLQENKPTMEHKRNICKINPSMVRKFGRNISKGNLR
Protocol: The ADP-Glo method was used to test the enzymatic activity of KIF18A. The compound was diluted 3-fold with DMSO at a starting concentration of 3000 nM, for a total of ten concentrations, and tested in duplicate. Echo was used to transfer 25 nL of the diluted compound to a 384-well plate, and 2.5 μL of enzyme working solution was added. Plate was centrifuged at 1000 rpm for 1 min, and incubated at 25° C. for 10 min. 2.5 μL of ATP and substrate solution was added to start the reaction, and plate was incubated at 25° C. for 60 min. 4 μL of ADP-Glo solution was added to the 384-well plate, and plate was incubated at 25° C. for 40 min. 8 μL of detection solution was added and incubated at 25° C. for 40 min, and BMG was used to read the […] value. Inhibition rate was calculate according to the following formula: Inhibition rate (%)=(DMSO well−compound well)/(DMSO well−blank control well)×100%. The IC50 value of each compound was analyzed using the nonlinear regression method of XLFit 5.5.0 software. The formula is: Y=Bottom+(Top−Bottom)/(1+10^((Log IC50−X)*HillSlope)).

SMILES	IC50 [nM]
Cc1cc(NC(=O)c2ccc(NS(=O)(=O)[C@H](C)CO)cc2N2CCC(=C(F)F)CC2)nc(N2CCC(F)(F)CC2)n1 [US20250214965, Compound 68]	< 50
Cc1cc(NC(=O)c2ccc(NS(=O)(=O)[C@@H](C)CO)cc2N2CCC(=C(F)F)CC2)nc(N2CCC(F)(F)CC2)n1 [US20250214965, Compound 69]	< 100
Cc1cc(NC(=O)c2ccc(NS(=O)(=O)CCO)cc2N2CCC(=C(F)F)CC2)nc(N2CCC(F)(F)CC2)c1F [US20250214965, Compound 79]	< 50
Cc1cc(NC(=O)c2ccc(NS(=O)(=O)[C@H](C)CO)cc2N2CCC(=C(F)F)CC2)nc(N2CCC(F)(F)CC2)c1 [US20250214965, Compound 82]	< 50
Cc1cc(NC(=O)c2ccc(NS(=O)(=O)CCO)cc2N2CCC3(CC2)CC3)nc(N2CCC(F)(F)CC2)c1F [US20250214965, Compound 85]	< 50
